Laboratory results reported in patent publication EP0406992A2, “New non-ionic carboxamide contrast agent” (SCHERING AKTIENGESELLSCHAFT, priority 1989, dated 1991).
Like-named read-outs stand apart in the source and are kept apart here. Marks after values point to notes of the source that are not given here.

What was measured:
männl. Maus 16-20 g = details: male mouse 16-20 g, approximate range
männl. Ratte 80-100 g = details: male rat 80-100 g, approximate range
[1] = Viscosity of contrast agent solutions at 37 °C; assay type: physicochemical; details: for Viskosität von 300 mg I/ml bei 37 °C: pharmaceutically formulated solution, determined in applicant's laboratory
[2] = Osmolality of contrast agent solutions; assay type: physicochemical; details: for Osmolalität von 300 mg I/ml Lösungen wäßrige Lösung: aqueous solution; for Osmolalität von 300 mg I/ml Lösungen pharmazeutisch formul. Lösung: pharmaceutically formulated solution
[3] = values marked * (Laut Literaturangabe); cited from earlier work

Row | SMILES | Näherungsbereich i.v. LD₅₀ männl. Maus 16-20 g (männl. Maus 16-20 g) | Näherungsbereich i.v. LD₅₀ männl. Ratte 80-100 g (männl. Ratte 80-100 g) | Viskosität von 300 mg I/ml bei 37 °C [1] | Osmolalität von 300 mg I/ml Lösungen wäßrige Lösung [2] [mOsm] | Osmolalität von 300 mg I/ml Lösungen pharmazeutisch formul. Lösung [2] [mOsm] | other results
1 | CC(=O)N(CC(O)CO)c1c(I)c(C(=O)NCC(O)CO)c(I)c(C(=O)NCC(O)CO)c1I (centres unmarked) [Iohexol] | 16-17 g I/kg | 11,5-12,5 g I/kg | – | – | – | –
2 | CC(=O)N(CC(O)CO)c1c(I)c(C(N)=O)c(I)c(C(=O)NCC(O)CO)c1I (centres unmarked) [Verbindung 19, 5-{N-(2,3-Dihydroxypropyl)acetamido}-2,4,6-triiod-3-{N-(2,3-dihydroxypropyl)}carbamoyl-Benzamid] | 14-16 g I/kg | 13-14 g I/kg | 4,1 cps | 365 | 390 | Viskosität bei 37 °C ([1]; injection solution 300 mg I/ml, CaNa2-EDTA 10 mg, Tris 121 mg per 100 ml, pH 7,0, 37 °C): 4,1 Centipoise; Viskosität bei 37 °C ([1]; injection solution 350 mg I/ml, CaNa2-EDTA 10 mg, Tris 121 mg per 100 ml, pH 7,0, 37 °C): 6,6 Centipoise; Viskosität bei 37 °C ([1]; injection solution 400 mg I/ml, CaNa2-EDTA 10 mg, Tris 121 mg per 100 ml, pH 7,0, 37 °C): 10,6 Centipoise; Osmolalität ([2]; injection solution 300 mg I/ml, CaNa2-EDTA 10 mg, Tris 121 mg per 100 ml, pH 7,0, autoclaved): 399 mOsm/kg; Osmolalität ([2]; injection solution 350 mg I/ml, CaNa2-EDTA 10 mg, Tris 121 mg per 100 ml, pH 7,0, autoclaved): 473 mOsm/kg; Osmolalität ([2]; injection solution 400 mg I/ml, CaNa2-EDTA 10 mg, Tris 121 mg per 100 ml, pH 7,0, autoclaved): 510 mOsm/kg
3 | CN(C(=O)CO)c1c(I)c(C(N)=O)c(I)c(C(=O)NC(CO)C(O)CO)c1I (stereo not drawn) [Verbindung 41, 5-{N-(Methyl)-2-hydroxyacetamido}-2,4,6-triiod-3-{N-(1,3,4-trihydroxy-threo-but-2-yl)}-carbamoyl-Benzamid] | 16-17,5 g I/kg | 15-17 g I/kg | 3,5 cps | 314 | 322 | –
4 | CC(=O)N(CC(O)CO)c1c(I)c(C(=O)NCCO)c(I)c(C(=O)NCC(O)CO)c1I (centres unmarked) [Ioxilan, reference compound] | 16-18 g I/kg | 12-13 g I/kg | 4,7 cps | 560 | 588 | –
5 | COCC(=O)Nc1c(I)c(C(=O)NCC(O)CO)c(I)c(C(=O)N(C)CC(O)CO)c1I (centres unmarked) [Iopromid] | 14-16 g I/kg | 11-12 g I/kg | – | 607 | 630 | Viskosität von 300 mg I/ml bei 37 °C [3]: 4,6* cps
6 | CC(=O)N(CCO)c1c(I)c(C(N)=O)c(I)c(C(=O)NC(CO)C(O)CO)c1I (stereo not drawn) [Verbindung 11, 5-{N-(2-Hydroxyethylacetamido)}-2,4,6-triiod-3-{N-(1,3,4-trihydroxy-threo-but-2-yl)}carbamoyl-Benzamid] | 15,5-16,5 g I/kg | 15,5-17,5 g I/kg | 4,2 cps | 300 | 326 | Viskosität bei 37 °C ([1]; injection solution 300 mg I/ml, CaNa2-EDTA 56 mg, Trinatriumcitrat 77 mg per 100 ml, pH 5,0 bis 6,0, 37 °C): 4,2 Centipoise; Viskosität bei 37 °C ([1]; injection solution 350 mg I/ml, CaNa2-EDTA 56 mg, Trinatriumcitrat 77 mg per 100 ml, pH 5,0 bis 6,0, 37 °C): 6,6 Centipoise; Viskosität bei 37 °C ([1]; injection solution 400 mg I/ml, CaNa2-EDTA 56 mg, Trinatriumcitrat 77 mg per 100 ml, pH 5,0 bis 6,0, 37 °C): 13,1 Centipoise; Osmolalität ([2]; injection solution 300 mg I/ml, CaNa2-EDTA 56 mg, Trinatriumcitrat 77 mg per 100 ml, pH 5,0 bis 6,0, autoclaved): 301 mOsm/kg; Osmolalität ([2]; injection solution 350 mg I/ml, CaNa2-EDTA 56 mg, Trinatriumcitrat 77 mg per 100 ml, pH 5,0 bis 6,0, autoclaved): 337 mOsm/kg; Osmolalität ([2]; injection solution 400 mg I/ml, CaNa2-EDTA 56 mg, Trinatriumcitrat 77 mg per 100 ml, pH 5,0 bis 6,0, autoclaved): 370 mOsm/kg
7 | C[C@H](O)C(=O)Nc1c(I)c(C(=O)NC(CO)CO)c(I)c(C(=O)NC(CO)CO)c1I [Iopamidol] | 16-18 g I/kg | 12-13 g I/kg | – | 671 | 704 | Viskosität von 300 mg I/ml bei 37 °C [3]: 4,7* cps
